Data on 1 molecule can be found in patent publication US20150374709A1, “TETRA-SUBSTITUTED NDGA DERIVATIVES VIA ETHER BONDS AND CARBAMATE BONDS AND THEIR SYNTHESIS AND PHARMACEUTICAL USE” (ERIMOS PHARMACEUTICALS LLC, priority 2006, published 2015).

The test system of one series is Caco-2 cell monolayers. As to the kind of experiment: Caco-2 monolayer bidirectional permeability. In kind it is in vitro ADME, human. Conditions: human, Caco-2, 90 min, 1 μM, pH 7.4. As to the method:
(§1) Permeability studies were conducted by an outside contractor on behalf of the assignee of the present invention and application to determine the permeability of Compound A through Caco-2 monolayers. An important factor of oral bioavailability is the ability of e compound to be absorbed in the small intestine. Measurement of drug apparent permeability (Papp) through cell monolayers is well correlated with human intestinal absorption, and several mammalian cell lines, including Caco-2, LLC-PK1 and MDCK, are appropriate for this measurement (Artursson, P. et al., Correlation between oral drug absorption in humans and apparent drug permeability coefficients in human intestinal epithelial (Caco-2) cells. Biochem Biophys Res Comm 175:880-885 (1991); Stewart. B. H., et al., Comparison of intestinal permeabilities in multiple in vitro and in situ models: relationship to absorption in humans. Pharm Res 12:693 (1995)). P-Glycoprotein (P-gp, encoded by MDR1) is a member of the ABC transporter super family and is expressed in the human intestine, liver and other tissues. Intestinal expression of P-gp may affect the oral bioavailability of drug molecules that are substrates for this transporter. Interaction with P-gp can be studied using direct assays of drug transport in polarized cell systems such as Caco-2 cell monolayers, and human P-gp cDNA-expressing LLC-PK1 and MDCK cell monolayers. Caco-2 cells (human adenocarcinoma colonic cell line Caco-2, ATCC Cat. No. […] The cells were cultured for 21-25 days with media replacement every 3-4 days. Monolayer integrity was evaluated by pre-experimental trans-epithelial electrical resistance (TEER) measurements and post-experimental lucifer yellow A to B flux determinations. […] Receiver solution was prepared by adding 1% DMSO to transport buffer. The test solution was of Compound A in DMSO in transport buffer at a final DMSO concentration of 1%. […] The donor and receiver solutions were added to the apical or basolateral chambers of the monolayers (depending on the direction of transport to be measured). The monolayers were incubated on an orbital shaker (50 rpm) at 37° C., with ambient humidity and CO2. After 90 minutes, samples from the donor and receiver chambers were removed for analysis. […] Duplicate monolayers were used for each incubation. Samples were analyzed by LC/MS/MS using peak area ratios to an internal standard. Test article concentrations were calculated based on the peak area ratios obtained for appropriate dilutions of the donor solution containing the test article at the nominal concentration in transport buffer. Samples were diluted as appropriate to ensure that the response was within the linear range of the mass spec detector. Comparator and control samples were analyzed by liquid scintillation counting. Lucifer yellow concentrations were determined using a fluorescence plate reader.
Background: Passage across Caco-2 layers is used to estimate intestinal permeability.

Series [1] in a line: Caco-2 monolayer bidirectional permeability. In kind it is in vitro ADME, human. To be noted: human. As to the method: as §1
The next series concerns Leukemia cell lines. As to the kind of experiment: NCI DTP human tumor cell line screen, leukemia panel. It counts as cell-based. To be noted: Leukemia (6 cell lines). An excerpt: The United States National Cancer Institute (NCI) provides a developmental therapeutics program (DTP) (http://dtp.nci.nih.gov/branches/btb/ivelsp.html) to screen submitted substances in support of cancer drug discovery. The In Vitro Cell Line Screening Project (IVCLSP) is a dedicated service providing direct support to the DTP anticancer drug discovery program and is designed to screen up to 3,000 compounds per year for potential anticancer activity. The operation of this screen utilizes 60 different human tumor cell lines, representing leukemia, melanoma and cancers of the lung, colon, brain, ovary, breast, prostate, and kidney. The aim is to prioritize for farther evaluation, synthetic compounds or natural product samples showing selective growth inhibition or cell killing of particular tumor cell lines. This screen is unique in that the complexity of a 60 cell line dose response produced by a given compound results in a biological response pattern which can be utilized in pattern recognition algorithms (COMPARE program. See: http://dtp.nci.nih.gov/docs/compare/compare.html). Using these algorithms, it is possible to assign a putative mechanism of action to a test compound, or to determine that the response pattern is unique and not similar to that of any of the standard prototype compounds included in the NCI database. […]

Take `C[C@H](Cc1ccc(OCCCN2CCCCC2)c(OCCCN2CCCCC2)c1)[C@@H](C)Cc1ccc(OCCCN2CCCCC2)c(OCCCN2CCCCC2)c1` [Compound A, 1,4-bis{3,4-bis[3-(piperidin-1-yl)propoxy]phenyl}-2,3-dimethyl-(2R,3S)-butane]: in the series on Caco-2 cell monolayers, the “Papp A to B” value came to 9.61 ×10⁻⁶ cm/s, the “Papp B to A” value stood at 1.72 ×10⁻⁶ cm/s and the “Polarization Ratio [B-A/A-B]” value came to 0.18. The molecule also showed a Papp A→B at 90 min, 1 μM in series [1] (Caco-2, pH 7.4, BCS permeability class) of 0.514 to 14.2 ×10⁻⁶ cm/s. This molecule displayed a Papp A→B at 90 min, 1 μM in series [1] (Caco-2, pH 7.4, Papp A to B) of 9.75 ×10⁻⁶ cm/s. Moreover, the Papp B→A at 90 min, 1 μM in series [1] (Caco-2, pH 7.4, Papp B to A) was 1.74 ×10⁻⁶ cm/s. Also, the efflux ratio at 90 min, 1 μM in series [1] (Caco-2, pH 7.4, Polarization Ratio [B-A/A-B]) fell in the range of 0.1 to 0.2. Further, in the series on Leukemia cell lines, the “Mean Growth Percent at 10 μM” value is recorded as −81.93%.

Broadly, the Papp A→B is how fast a substance crosses the layer from the apical side. Higher therefore signals fast passage. The term Papp B→A denotes the apparent permeability from the basolateral to the apical side of a cell layer. Usually efflux ratio stands for a quotient of directional permeabilities that is used to spot active efflux.
